According to US6680336B2, “Cyclic AMP-specific phosphodiesterase inhibitors” (ICOS Corporation, priority 1999, dated 2004):

Assays:
recombinant human PDE4 = target: T1, recombinant human PDE4; test: PDE4 inhibition, charcoal separation [32P]cAMP phosphodiesterase assay; type: biochemical
T1 construct: PDE4 IC50; other: human recombinant PDE4
Method: The compounds of structural formula (II) were tested for an ability to inhibit PDE4. The ability of a compound to inhibit PDE4 activity is related to the IC50 value for the compound, i.e., the concentration of inhibitor required for 50% inhibition of enzyme activity. The IC50 value for compounds of structural formula (II) were determined using recombinant human PDE4.
Recombinant production of human PDE1B, PDE2, PDE4A, PDE4B, PDE4C, PDE4D, PDE5, and PDE7 was carried out similarly to that described in Example 7 of U.S. Pat. No. 5,702,936, incorporated herein by reference, except that the yeast transformation vector employed, which is derived from the basic ADH2 plasmid described in Price et al., Methods in Enzymology, 185, pp. 308-318 (1990), incorporated yeast ADH2 promoter and terminator sequences and the Saccharomyces cerevisiae host was the protease-deficient strain BJ2-54 deposited on Aug. 31, 1998 with the American Type Culture Collection, Manassas, Va., under accession number ATCC 74465. Transformed host cells were grown in 2×SC-leu medium, pH 6.2, with trace metals, and vitamins. After 24 hours, YEP medium-containing glycerol was added to a final concentration of 2×YET/3% glycerol. Approximately 24 hr later, cells were harvested, washed, and stored at −70° C.
Phosphodiesterase activity of the preparations was determined as follows. PDE assays utilizing a charcoal separation technique were performed essentially as described in Loughney et al. (1996). In this assay, PDE activity converts [32P]cAMP or [32P]cGMP to the corresponding [32P]5′-AMP or [32P]5′-GMP in proportion to the amount of PDE activity present. The [32P]5′-AMP or [32P]5′-GMP then was quantitatively converted to free [32P]phosphate and unlabeled adenosine or guanosine by the action of snake venom 5′-nucleotidase. […] The assay was performed at 30° C. in a 100 μL reaction mixture containing (final concentrations) 40 mM Tris HCl (pH 8.0), 1 μM ZnSO4, 5 mM MgCl2, and 0.1 mg/mL bovine serum albumin (BSA). Alternatively, in assays assessing PDE1-specific activity, incubation mixtures further incorporated the use of 0.1 mM CaCl2 and 10 μg/mL calmodulin. PDE enzyme was present in quantities that yield <30% total hydrolysis of substrate (linear assay conditions). The assay was initiated by addition of substrate (1 mM [32P]cAMP or cGMP), and the mixture was incubated for 12 minutes. Seventy-five (75) μg of Crotalus atrox venom then was added, and the incubation was continued for 3 minutes (15 minutes total). The reaction was stopped by addition of 200 μL of activated charcoal (25 mg/mL suspension in 0.1 M […], pH 4). After centrifugation (750×g for 3 minutes) to sediment the charcoal, a sample of the supernatant was taken for radioactivity determination in a scintillation counter and the PDE activity was calculated.
Inhibitor analyses were performed similarly to the method described in Loughney et al., J. Biol. Chem., 271, pp. 796-806 (1996), except both cGMP and cAMP were used, and substrate concentrations were kept below 32 nM, which is far below the Km of the tested PDEs.

[1] = system: TNFα secretion in human peripheral blood lymphocytes; test: Lipopolysaccharide-stimulated TNFα release from human peripheral blood lymphocytes; type: cell-based; conditions: Lymphocyte; LPS-stimulated TNFα release from human PBL
Method: The compounds of structural formula (II) also were tested for an ability to reduce TNFα secretion in human peripheral blood lymphocytes. The ability to reduce TNFα secretion is related to the EC50 values i.e., the effective concentration pf the compound capable of inhibiting 50% of the total TNFα).
To assess the ability of a compound to reduce TNFα secretion in human peripheral blood lymphocytes (PBL), the following tests were performed.
Heparinized blood (approximately 30 mL) drawn from human volunteers was mixed 1:1 with Dulbecco's modified phosphate-buffered saline. This mixture was mixed 1:1 with HISTOPAQUE® and centrifuged at 1,500 rpm at room temperature without braking in the swinging bucket of a Beckman model TJ6 centrifuge. Erythrocytes were centrifuged to the bottom of the tubes, and serum remained at the surface of the tubes. A layer containing lymphocytes sedimented between the serum and HISTOPAQUE® layers, and was removed by aspiration to a fresh tube. The cells were quantified and adjusted to […] and a 100 μL aliquot is placed into the wells of a 96 well plate. Test compounds and RPMI media (Gibco/BRL Life Sciences) are added to each of the wells 15 minutes prior to addition of bacterial LPS ([…]). The mixture was allowed to incubate for 20 hours at 37° C. in a humidified chamber. The cells then were separated by centrifuging at 800 rpm for 5 minutes at room temperature. An aliquot of 180 μL of supernatant was transferred to a new plate for determination of TNFα concentration. TNFα protein in the cell supernatant fluids was measured using a commercially available enzyme-linked immunosorbent assay (ELISA) (CYTOSCREEN® Immunoassay Kit from Biosource International).
The cell-based assay provided the following results for various pyrrolidine compounds of the present invention. The EC50 values (i.e., effective concentration of the compound capable of inhibiting 50% of the total TNFα) illustrate the ability of the present compounds to inhibit LPS-stimulated TNFα release from human PBL.

Row | IC50 (recombinant human PDE4) | EC50 [1] | SMILES
1 | 5890 nM |  | COc1ccc(C2CN(Cc3ccccc3)C[C@]2(C)CN(C)C)cc1OC1CCCC1 (stereo partly drawn) [Example 22]
2 | 1400 nM | 776 nM | COC(=O)N1C[C@@H](c2ccc(OC)c(OC3CCCC3)c2)[C@](C)(CNCc2ccccc2)C1 [Example 1, Methyl (4S,3R)-4-(3-cyclopentyloxy-4-methoxyphenyl)-3-methyl-3-{[benzylamino]methyl]}pyrrolidine carboxylate]
3 | 14700 nM |  | COc1ccc([C@@H]2CN(Cc3ccccc3)C[C@@]2(C)C(C)NC(C)=O)cc1OC1CCCC1 (stereo partly drawn) [Example 12, N-{1-[(3S,4S)-4-(3-Cyclopentyloxy-4-methoxyphenyl)-3-methyl-1-benzylpyrrolidin-3-yl]ethyl}acetamide]
4 | 3180 nM |  | COC(=O)N1CC(c2ccc(OC)c(OC3CCCC3)c2)[C@](C)(CNS(C)(=O)=O)C1 (stereo partly drawn) [Example 3]
5 | 2510 nM |  | COC(=O)N1C[C@@H](c2ccc(OC)c(OC3CCCC3)c2)[C@](C)(CNC(=O)c2ccccc2)C1 [Example 5, Methyl (4S,3R)-4-(3-cyclopentyloxy-4-methoxyphenyl)-3-methyl-3-[(phenylcarbonylamino)methyl]pyrrolidinecarboxylate]
6 | 8660 nM |  | COc1ccc([C@@H]2CN(Cc3ccccc3)C[C@@]2(C)C(C)NS(C)(=O)=O)cc1OC1CCCC1 (stereo partly drawn) [Example 17, {1-[(3S,4S)-4-(3-Cyclopentyloxy-4-methoxyphenyl)-3-methyl-1-benzylpyrrolidin-3-yl]ethyl}-(methylsulfonyl)amine]
7 | 591 nM | 1390 nM | CCNC[C@]1(C)CN(C(=O)OC)C[C@H]1c1ccc(OC)c(OC2Cc3ccccc3C2)c1 [Example 28]
8 | 7390 nM |  | COc1ccc([C@@H]2CN(Cc3ccccc3)C[C@@]2(C)C(C)NS(C)(=O)=O)cc1OC1CCCC1 (stereo partly drawn) [Example 18, {1-[(3S,4S)-4-(3-Cyclopentyloxy-4-methoxyphenyl)-3-methyl-1-benzylpyrrolidin-3-yl]ethyl}-(methylsulfonyl)amine]
9 | 2200 nM |  | COC(=O)N1C[C@@H](c2ccc(OC)c(OC3CCCC3)c2)[C@](C)(CNC(=O)OC(C)(C)C)C1 [Example 21]
10 | 2950 nM |  | COc1ccc([C@@H]2CN(Cc3ccccc3)C[C@@]2(C)C(C)NC(=O)c2ccccc2)cc1OC1CCCC1 (stereo partly drawn) [Example 10, N-{1-[(3S,4S)-4-(3-Cyclopentyloxy-4-methoxyphenyl)-3-methyl-1-benzylpyrrolidin-3-yl]ethyl}benzamide]
11 | 53 nM | 85.5 nM | COC(=O)N1C[C@@H](c2ccc(OC)c(OCC3CC3)c2)[C@](C)(CN)C1 [Example 25]
12 | 2440 nM |  | COc1ccc([C@@H]2CN(Cc3ccccc3)C[C@@]2(C)C(C)NC(C)=O)cc1OC1CCCC1 (stereo partly drawn) [Example 13, N-{1-[(3S,4S)-4-(3-Cyclopentyloxy-4-methoxyphenyl)-3-methyl-1-benzylpyrrolidin-3-yl]ethyl}acetamide]
13 | 235 nM | 450 nM | COc1ccc([C@@H]2CN(C(=O)C(C)(C)O)C[C@@]2(C)CN)cc1OCC1CC1 [Example 26]
14 | 3090 nM |  | COC(=O)N1C[C@@H](c2ccc(OC)c(OC3CCCC3)c2)[C@](C)(CNC(C)=O)C1 [Example 4, Methyl (4S,3R)-3-[(acetylamino)methyl]-4-(3-cyclopentyloxy-4-methoxyphenyl)-3-methylpyrrolidine-carboxylate]
15 | 9080 nM |  | COc1ccc(C2CN(Cc3ccccc3)C[C@@]2(C)C(C)NS(=O)(=O)c2ccccc2)cc1OC1CCCC1 (stereo partly drawn) [Example 16, {1-[(3S,4S)-4-(3-cyclopentyloxy-4-methoxyphenyl)-3-methyl-1-benzylpyrrolidin-3-yl]ethyl}-(phenylsufonyl)amine]
16 | 506 nM | 730 nM | COC(=O)N1CC(c2ccc(OC)c(OC3CCCC3)c2)[C@](C)(CNS(=O)(=O)c2ccccc2)C1 (stereo partly drawn) [Example 6]
17 | 7550 nM |  | CNC[C@]1(C)CN(Cc2ccccc2)CC1c1ccc(OC)c(OC2CCCC2)c1 (stereo partly drawn) [Example 23]
18 |  | 598 nM | COC(=O)N1C[C@@H](c2ccc(OC)c(OC3CCCC3)c2)[C@](C)(C(C)NC(C)=O)C1 (stereo partly drawn) [Example 14, 3-(S)-(1-Acetylaminoethyl)-4-(S)-(3-cyclopentyloxy-4-methoxyphenyl)-3-methylpyrrolidine-1-carboxic Acid Methyl Ester]
19 | 479 nM | 816 nM | COc1ccc([C@@H]2CN(C(=O)CO)C[C@@]2(C)CN)cc1OCC1CC1 [Example 27]
20 | 27100 nM |  | COc1ccc([C@@H]2CN(Cc3ccccc3)C[C@@]2(C)C(C)NC(=O)c2ccccc2)cc1OC1CCCC1 (stereo partly drawn) [Example 11, N-{1-[(3S,4S)-4-(3-Cyclopentyloxy-4-methoxyphenyl)-3-methyl-1-benzylpyrrolidin-3-yl]ethyl}benzamide]
21 | 28.5 nM | 142 nM | COC(=O)N1C[C@@H](c2ccc(OC)c(OC3CCCC3)c2)[C@](C)(CN)C1 [Example 2, Methyl (4S,3R)-3-(aminomethyl)-4-(3-cyclopentyloxy-4-methoxyphenyl)-3-methylpyrrolidinecarboxylate]
22 | 22.9 nM | 76.5 nM | COC(=O)N1C[C@@H](c2ccc(OC)c(OC3Cc4ccccc4C3)c2)[C@](C)(CN)C1 [Example 24]
23 | 8970 nM |  | COc1ccc([C@@H]2CN(Cc3ccccc3)C[C@@]2(C)C(C)NS(=O)(=O)c2ccccc2)cc1OC1CCCC1 (stereo partly drawn) [Example 15, {1-[(3S,4S)-4-(3-Cyclopentyloxy-4-methoxyphenyl)-3-methyl-1-benzylpyrrolidin-3-yl]ethyl}-(phenylsulfonyl)amine]

Row | SMILES | IC50 (recombinant human PDE4) | EC50 [1]
24 | COc1ccc([C@@H]2CN(Cc3ccccc3)C[C@@]2(C)C(C)N)cc1OC1CCCC1 (stereo partly drawn) [Example 8, 1-[(3S,4S)-4-(3-Cyclopentyloxy-4-methoxyphenyl)-3-methyl-1-benzylpyrrolidin-3-yl]ethylamine] | 673 nM | 1560 nM
